By solubility is commonly meant the concentration that dissolves in the medium under given conditions.

The record followed here is patent US20080070961A1, “Polymorphs of N-(2-acetyl-4,6-dimethylphenyl)-3-{[(3,4 dimethyl-5-isoxazolyl)-amino]sulfonyl}-2-thiophene-carboxamide” (priority 2006, published 2008).

The nature of data set [1]: Interconversion experiments (slurries of two forms, XRPD). It is filed as physicochemical. How it is done: Interconversion experiments were carried out by making slurries containing two forms of N-(2-acetyl-4,6-dimethylphenyl)-3 -{[(3,4-dimethyl-5-isoxazolyl)amino]-sulfonyl}-2-thiophenecaboxamide in saturated toluene, methanol/water, or alcohol solutions. The slurries were agitated for various time periods at either ambient temperature or at 45° C. The insoluble solids were recovered by filtration and analyzed using XRPD.

Data set [2] can be described thus: Grinding experiments (mortar and pestle, XRPD). It is filed as physicochemical. The protocol: N-(2-acetyl-4,6-dimethylphenyl)-3-{[(3 ,4-dimethyl-5-isoxazolyl)amino]-sulfonyl}-2-thiophenecaboxamide material was ground by hand with a mortar and pestle for 30 sec, 1, 2, and 5 minutes. The samples were then analyzed by XRPD.
Data set [3] in a line: Approximate solubilities of Form A in various solvents at ambient temperature. It is filed as physicochemical. The following applies: for solubility: thermodynamic from solid, approximate. How it is done: The approximate solubilities were estimated from experiments based on the total solvent used to give a solution. The actual solubilities may be greater than those calculated because of the use of too-large solvent aliquots or a slow rate of dissolution. […] If the solid dissolved before the whole aliquot of solvent was added the solubility is listed as “greater than”.

Data set [4] can be described thus: Moisture sorption/desorption. The class given is physicochemical. Particulars: for XRPD Results after the moisture sorption/desorption experiment: sorption 5 to 95% RH, desorption 95 to 5% RH. The protocol: The moisture sorption/desorption data was collected on a VT SGA-100 moisture balance system. For sorption isotherms, a sorption range of 5 to 95% relative humidity (RH) and a desorption range of 95 to 5% RH in 10% RH increments were used for analysis. The sample was not dried prior to analysis. Equilibrium criteria used for analysis was less than 0.0100% weight change in 5 minutes with a maximum equilibration time of 3 hours if the weight criterion was not met. Data was not corrected for the initial moisture content of the samples.

Data set [5] can be described thus: Stress studies (humidity / temperature, XRPD). It is filed as physicochemical. The protocol: Samples of N-(2-acetyl-4,6-dimethylphenyl)-3-{[(3,4-dimethyl-5-isoxazolyl)amino]-sulfonyl}-2-thiophenecaboxamide were stressed at 22, 58, 75, and 93% RH under ambient temperature for 3 days. One sample was also placed in a 40 ° C. oven for 11 days. Samples of amorphous material were also placed in a 40 ° C. oven for 36 days or in a 70 ° C. oven for 4 days. The solids were then analyzed by XRPD.

Data set [6] is described as follows: Solubility of Forms A, C and E in ethanol (gravimetric). Particulars: for stability of the forms (order, based on the solubility data): ethanol solubility data; for AVERAGE SOLUBILITY / solubility at 30 min / solubility at 60 min / XRPD of remaining solid after the solubility experiment (form conversion) / relative solubility of the forms: ethanol; for solubility at 30 min / solubility at 60 min: organic solvent or mixture, thermodynamic from solid, AVERAGE SOLUBILITY; for XRPD of remaining solid after the solubility experiment (form conversion) / relative solubility of the forms: various temperatures.
Description: (§1) Saturated solutions of this compound in ethanol were prepared and each solution was heated to either 25, 27, 35, 40 or 50° C.' and stirred for 30 minutes. The samples were filtered into a receiving flask and were heated at the same temperatures and stirred for another 30 minutes. Samples were removed from these flasks and were filtered into a tared vial. The remaining solution was heated and stirred for another 30 minutes. Samples were again removed from these flasks and were filtered into another tared vial. The solvents in the tared vials were removed using a rotary evaporator and the weights of the solids in the tared vials were recorded and were used to calculate solubility.
(§2) The solubilitites reported were determined gravimetrically, therefore, fluctuations in the data are possible.

Data set [7] in a line: physchem. The following applies: organic solvent or mixture, thermodynamic from solid, AVERAGE SOLUBILITY
Description: as §1, §2

In brackets after ≈: the same amount, converted by molar mass. Entries after “also recorded” stand apart in the source; their conditions may differ.

Regarding `CC(=O)c1cc(C)cc(C)c1NC(=O)c1sccc1S(=O)(=O)Nc1onc(C)c1C` [A vs. C], the “XRPD Results after slurry” value is given as “A + C, SS” in data set [1] (1:1 methanol:water, 12 days); “A + C” in data set [1] (toluene RT, 12 days); “A + C” in data set [1] (toluene, 45° C., 5 days).

Consider `CC(=O)c1cc(C)cc(C)c1NC(=O)c1sccc1S(=O)(=O)Nc1onc(C)c1C` [A vs. E], for which the “XRPD Results after slurry” value in data set [1] (ethanol, 20 days) is listed as “A + E(min)”; in data set [1] (ethanol, 27 days) it was “A + pk 4°”; in data set [1] (toluene RT, 20 days), “A, SS”; in data set [1] (toluene, 45° C., 5 days), “A(PO)”.

Regarding `CC(=O)c1cc(C)cc(C)c1NC(=O)c1sccc1S(=O)(=O)Nc1onc(C)c1C` [A(PO)], in data set [2] (grind time 2 min), the “XRPD Pattern after grinding” value is “C + E”.

Take `CC(=O)c1cc(C)cc(C)c1NC(=O)c1sccc1S(=O)(=O)Nc1onc(C)c1C` [C vs. E]: in data set [1] (toluene, 45° C., 5 days), the “XRPD Results after slurry” value was “A + C”.

As for `CC(=O)c1cc(C)cc(C)c1NC(=O)c1sccc1S(=O)(=O)Nc1onc(C)c1C` [Form A, N-(2-acetyl-4,6-dimethylphenyl)-3-{[(3,4dimethyl-5-isoxazolyl)-amino]sulfonyl}-2-thiophenecarboxamide], the solubility in data set [3] (N,N-dimethylformamide, organic solvent or mixture) is 250 mg/mL (≈ 559 mM); in data set [3] (acetone, organic solvent or mixture), 87 mg/mL (≈ 194 mM); in data set [3] (acetonitrile, organic solvent or mixture) it was 72 mg/mL (≈ 161 mM); in data set [3] (dichloromethane, organic solvent or mixture), 135 mg/mL (≈ 302 mM); in data set [3] (diethyl ether, organic solvent or mixture) it was less than 9 mg/mL; in data set [3] (dimethyl sulfoxide, organic solvent or mixture), 144 mg/mL (≈ 322 mM). Also, the solubility is 9 mg/mL (≈ 20.1 mM) in data set [3] (ethanol, organic solvent or mixture); 21 mg/mL (≈ 46.9 mM) in data set [3] (ethyl acetate, organic solvent or mixture); less than 9 mg/mL in data set [3] (hexanes, organic solvent or mixture); less than 10 mg/mL in data set [3] (isopropanol, organic solvent or mixture); 21 mg/mL (≈ 46.9 mM) in data set [3] (methanol, organic solvent or mixture); less than 9 mg/mL in data set [3] (propanol, organic solvent or mixture). For the same molecule, the solubility in data set [3] (toluene, organic solvent or mixture) is 19 mg/mL (≈ 42.5 mM); in data set [3] (water), less than 8 mg/mL. In data set [3] (diethyl other, hexanes, propanol and water), the “solubility (in words)” value is reported as “sparingly soluble”. Moreover, the “hygroscopicity (based on moisture sorption/desorption data)” value in data set [4] is “non-hygroscopic”. The “Moisture Balance Results: weight loss at 5% RH” value in data set [4] is <0.1% weight loss at 5% RH,. Moreover, the “Moisture Balance Results: total weight gain at 95% RH” value (“Moisture Balance Results … at 95% RH” for short) in data set [4] is <0.1% total weight gain at 95% RH. Besides, the “XRPD Results after the moisture sorption/desorption experiment” value in data set [4] was “remained Form A”. The “form after stress, all conditions of Table 10” value in data set [5] (various conditions (22-93% RH 3 d; 40° C. 11 d)) is “remained Form A”. Besides, the “XRPD Pattern after grinding” value in data set [2] (grind time 1 min) is reported as “A, SS”. In addition, in data set [2] (ground for up to 5 minutes, mortar and pestle), the crystallinity upon grinding entry is on record as “loses some crystallinity”. The “stability of the forms (order, based on the solubility data)” value in data set [6] is reported as “Form A >Form C >Form E”. In addition, the “AVERAGE SOLUBILITY” value was determined as 9.5 mg/mL in data set [6] (25 °C, 30 min); 10.6 mg/mL in data set [6] (25 °C, 60 min); 17.3 mg/mL in data set [6] (40 °C, 30 min); 18.1 mg/mL in data set [6] (40 °C, 60 min). For the same molecule, the solubility at 30 min in data set [6] (50 °C, 30 min) was 40.8 mg/mL (≈ 91.2 mM). In addition, in data set [6] (50 °C, 60 min), the solubility at 60 min stood at 36.7 mg/mL (≈ 82 mM). Besides, the “XRPD of remaining solid after the solubility experiment (form conversion)” value in data set [6] is “conversion to another form did not occur”. The “relative solubility of the forms” value in data set [6] was “less soluble form; also recorded: least soluble”.

`CC(=O)c1cc(C)cc(C)c1NC(=O)c1sccc1S(=O)(=O)Nc1onc(C)c1C` [Form C, N-(2-acetyl-4,6-dimethylphenyl)-3-{[(3,4dimethyl-5-isoxazolyl)-amino]sulfonyl}-2-thiophenecarboxamide]: in data set [4], the “hygroscopicity (based on moisture sorption/desorption data)” value is listed as “non-hygroscopic”, the “Moisture Balance Results: weight loss at 5% RH” value was <0.1% weight loss at 5% RH,, the “Moisture Balance Results … at 95% RH” value is <0.1% total weight gain at 95% RH and the “XRPD Results after the moisture sorption/desorption experiment” value was “remained Form C”. Also, the “XRPD Pattern after grinding” value in data set [2] (grind time 2 min) is “remained Form C”. Besides, the “XRPD Results after slurry” value in data set [1] (ethanol, 16 days) was “remained the same form”. In data set [6], the “stability of the forms (order, based on the solubility data)” value is listed as “Form A >Form C >Form E”; the “XRPD of remaining solid after the solubility experiment (form conversion)” value is given as “did not change form; also recorded: did not convert”; the “relative solubility of the forms” value was “higher solubility than Form A”. Besides, the solubility at 30 min in data set [6] (25 °C, 30 min) came to 16.1 mg/mL (≈ 36 mM). In addition, the solubility at 60 min in data set [6] (25 °C, 60 min) came out at 13.2 mg/mL (≈ 29.5 mM). Also, in data set [6] (40 °C, 30 min), the solubility at 30 min stood at 28.3 mg/mL (≈ 63.2 mM). Besides, in data set [6] (40 °C, 60 min), the solubility at 60 min came out at 27.4 mg/mL (≈ 61.2 mM). For the same molecule, in data set [6] (50 °C, 30 min), the “AVERAGE SOLUBILITY” value is reported as 35.6 mg/mL. In addition, the “AVERAGE SOLUBILITY” value in data set [6] (50 °C, 60 min) is 45.1 mg/mL.

For the molecule `CC(=O)c1cc(C)cc(C)c1NC(=O)c1sccc1S(=O)(=O)Nc1onc(C)c1C` [Form E, N-(2-acetyl-4,6-dimethylphenyl)-3-{[(3,4dimethyl-5-isoxazolyl)-amino]sulfonyl}-2-thiophenecarboxamide], in data set [4], the “hygroscopicity (based on moisture sorption/desorption data)” value is given as “non-hygroscopic”, the “Moisture Balance Results: weight loss at 5% RH” value was <0.1% weight loss at 5% RH,, the “Moisture Balance Results … at 95% RH” value is on record as 0.15% total weight gain at 95% RH and the “XRPD Results after the moisture sorption/desorption experiment” value was “remained Form E”. For the same molecule, the “weight loss or gain during the moisture sorption/desorption experiment” value in data set [4] (whole experiment) is given as less than 0.2%. In data set [7] (27 °C), the solubility at 30 min was found to be 12.7 mg/mL (≈ 28.4 mM) and the solubility at 60 min is 11 mg/mL (≈ 24.6 mM). Further, in data set [7] (35 °C), the solubility at 30 min worked out at 17.7 mg/mL (≈ 39.5 mM) and the solubility at 60 min was determined as 18.3 mg/mL (≈ 40.9 mM). In data set [7] (50 °C), the solubility at 30 min amounted to 40.8 mg/mL (≈ 91.2 mM) and the solubility at 60 min was determined as 39.7 mg/mL (≈ 88.7 mM).

As to `CC(=O)c1cc(C)cc(C)c1NC(=O)c1sccc1S(=O)(=O)Nc1onc(C)c1C` [amorphous, N-(2-acetyl-4,6-dimethylphenyl)-3-{[(3,4dimethyl-5-isoxazolyl)-amino]sulfonyl}-2-thiophenecarboxamide], the “Moisture Balance Results: weight loss at 5% RH” value in data set [4] was <0.1% weight loss at 5% RH,. For the same molecule, the “XRPD Results after the moisture sorption/desorption experiment” value in data set [4] was “remained amorphous; also recorded: does not recrystallize”. In addition, the “XRPD Pattern after stress” value is “amorphous” in data set [5] (40° C., 36 d); “a mixture of Forms E and C” in data set [5] (70° C., 4 d); “Forms C and E” in data set [5] (ambient, 92 d (approx. 3 months)).
